Results reported in US7998989B2, “2-Imino-1,3-thiazoline-based compounds and T-type calcium channel inhibitors containing the same” (Korea Institute of Science and Technology, priority 2007, dated 2011).
Read-outs that look alike come from different tables or passages of the source.

Assays:
[1] = target: T1, α1G T-type calcium channel (Homo sapiens, UniProt O43497); experiment: Assay for % inhibiting activity against T-type calcium channel using FDSS6000 (fluo-3 calcium imaging, KCl activation); type: cell-based
T1 construct: host or cells: HEK293
T1 sequence (O43497 whole entry): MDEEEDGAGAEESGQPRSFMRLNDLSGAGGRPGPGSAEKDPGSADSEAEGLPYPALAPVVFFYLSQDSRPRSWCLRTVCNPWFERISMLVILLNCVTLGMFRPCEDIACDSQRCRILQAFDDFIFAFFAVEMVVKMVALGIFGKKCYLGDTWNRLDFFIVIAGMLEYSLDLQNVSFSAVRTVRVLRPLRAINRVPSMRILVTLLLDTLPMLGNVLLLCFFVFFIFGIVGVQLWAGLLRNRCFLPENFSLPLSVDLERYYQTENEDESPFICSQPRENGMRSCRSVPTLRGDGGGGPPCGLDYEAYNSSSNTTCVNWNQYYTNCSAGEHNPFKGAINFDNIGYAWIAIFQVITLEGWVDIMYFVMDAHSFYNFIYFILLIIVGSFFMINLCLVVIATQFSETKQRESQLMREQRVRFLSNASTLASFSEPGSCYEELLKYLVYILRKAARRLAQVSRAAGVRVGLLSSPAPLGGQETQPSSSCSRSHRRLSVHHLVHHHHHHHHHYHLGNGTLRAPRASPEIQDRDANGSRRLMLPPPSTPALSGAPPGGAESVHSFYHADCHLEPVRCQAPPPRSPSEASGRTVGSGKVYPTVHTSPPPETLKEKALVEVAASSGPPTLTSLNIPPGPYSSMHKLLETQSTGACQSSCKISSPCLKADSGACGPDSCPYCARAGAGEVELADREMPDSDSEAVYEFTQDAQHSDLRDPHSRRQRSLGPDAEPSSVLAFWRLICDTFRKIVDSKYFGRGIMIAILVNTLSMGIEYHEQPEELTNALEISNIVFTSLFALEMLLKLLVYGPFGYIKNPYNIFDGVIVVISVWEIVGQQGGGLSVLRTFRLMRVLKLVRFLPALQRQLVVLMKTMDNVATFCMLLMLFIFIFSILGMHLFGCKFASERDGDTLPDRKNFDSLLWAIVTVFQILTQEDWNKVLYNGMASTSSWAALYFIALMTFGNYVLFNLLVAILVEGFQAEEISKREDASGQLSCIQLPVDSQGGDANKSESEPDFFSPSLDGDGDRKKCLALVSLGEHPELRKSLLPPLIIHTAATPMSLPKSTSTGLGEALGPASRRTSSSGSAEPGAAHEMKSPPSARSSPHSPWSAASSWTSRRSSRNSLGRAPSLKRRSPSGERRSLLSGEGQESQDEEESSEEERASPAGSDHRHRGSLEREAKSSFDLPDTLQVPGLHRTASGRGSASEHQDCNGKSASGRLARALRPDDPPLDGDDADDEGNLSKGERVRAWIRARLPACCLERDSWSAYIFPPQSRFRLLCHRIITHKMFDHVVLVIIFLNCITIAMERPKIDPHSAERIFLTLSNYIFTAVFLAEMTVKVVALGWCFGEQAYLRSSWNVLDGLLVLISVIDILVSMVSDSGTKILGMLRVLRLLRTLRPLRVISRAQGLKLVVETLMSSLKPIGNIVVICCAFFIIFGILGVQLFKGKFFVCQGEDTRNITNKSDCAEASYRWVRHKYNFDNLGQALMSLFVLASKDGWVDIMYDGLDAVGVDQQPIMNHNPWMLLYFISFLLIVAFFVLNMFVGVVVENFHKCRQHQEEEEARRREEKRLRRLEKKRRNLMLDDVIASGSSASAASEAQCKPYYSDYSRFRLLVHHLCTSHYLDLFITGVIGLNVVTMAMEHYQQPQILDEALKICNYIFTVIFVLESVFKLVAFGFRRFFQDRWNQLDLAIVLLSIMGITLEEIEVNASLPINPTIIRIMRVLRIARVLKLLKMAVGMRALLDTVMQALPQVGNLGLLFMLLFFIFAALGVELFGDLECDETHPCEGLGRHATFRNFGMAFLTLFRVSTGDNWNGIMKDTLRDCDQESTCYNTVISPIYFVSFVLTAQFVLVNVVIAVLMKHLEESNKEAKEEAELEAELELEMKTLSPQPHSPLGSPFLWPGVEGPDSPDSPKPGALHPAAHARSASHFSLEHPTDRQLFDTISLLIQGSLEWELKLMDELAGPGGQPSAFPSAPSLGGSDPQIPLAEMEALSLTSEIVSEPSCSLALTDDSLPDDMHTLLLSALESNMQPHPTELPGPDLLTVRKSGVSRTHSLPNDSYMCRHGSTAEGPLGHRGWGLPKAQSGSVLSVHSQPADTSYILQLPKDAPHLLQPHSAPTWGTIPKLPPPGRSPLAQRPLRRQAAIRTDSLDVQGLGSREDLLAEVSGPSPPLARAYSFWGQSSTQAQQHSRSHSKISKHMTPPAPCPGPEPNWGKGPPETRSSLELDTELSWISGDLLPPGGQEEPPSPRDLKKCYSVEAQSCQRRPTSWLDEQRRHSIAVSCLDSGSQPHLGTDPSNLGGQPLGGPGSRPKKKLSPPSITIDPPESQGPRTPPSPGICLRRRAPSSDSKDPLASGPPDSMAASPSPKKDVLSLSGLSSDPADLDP
Procedure, shortened: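 Percent inhibition derived from […] area against untreated control (100%), after 75 s compound pre-exposure and 75 mM KCl activation. Cells: HEK293 with stable α1G plus Kir2.1, fluo-3/AM-labelled (5 μM), assayed in pH 7.4 HEPES containing 10 mM CaCl2.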

[2] = target: T1, α1G T-type calcium channel; experiment: Electrophysiological whole cell patch clamp measurement of T-type calcium channel current in HEK293 cells; type: cell-based; conditions: HEK293 cells expressing α1G; for HEK293cell (% Inhibition) 10 μM: inhibition of peak current; for IC50: read-out: IC50 (a1G)
Experimental: In the present invention, in order to examine an efficient inhibitor against the T-type calcium channel, a primary assay for T-type calcium channel inhibiting activity was conducted by a high-efficient assay using FDSS6000, wherein mammal HEK293 cell lines (originated from human kidney carcinoma cells) that specifically express α1G of the T-type calcium channel was used for primary assay. Through the primary assay, compounds that show meaningful inhibition effects were selected. The selected compounds were used in a second assay for T-type calcium channel inhibiting activity using an electrophysiological whole cell patch clamp method, wherein mammal HEK293 cell lines (originated from human kidney carcinoma cells) that specifically express α1G of the T-type calcium channel was used for the second assay. Mibefradil, which had been developed as a T-type calcium channel inhibitor, was used as a reference.
10% Fetal bovine serum (FBS) and 1% penicillin/streptomycin (v/v) were added to Dulbecco's modified Eagle's medium (DMEM), to be used as a media solution. The cells were cultured in an incubator under a wet condition of 95% air/5% CO2 and a temperature of 36.5° C. The media solution was refreshed every 3 or 4 days, and the cells were sub-cultured every week. Only the cells that expressed α1G T-type calcium channel were cultured using a G-418 (0.5 mg/ml) solution. The recording of the cells used in the T-type calcium channel activity analysis was conducted at 2-7 days after the cells were culturing on a cover slip coated with poly-L-lysine (0.5 mg/ml) when conducting every sub-culture. For analysis at a single cell level, the T-type calcium channel current was measured by an electrophysiological whole cell patch clamp method using EPC-9 amplifier (HEKA, German).
As solutions for analyzing T-type calcium channel activity, a solution including NaCl 140 mM, CaCl2 2 mM, and HEPES10 mM (pH 7.4, Sigma; 4-(2-hydroxyethyl)piperazine-1-ethanesulfonic acid) was used as an extracellular solution, and a solution including KCl 130 mM, HEPES 10 mM (Sigma), EGTA 11 mM (ethylene glycol-bis(2-aminoethylether)-N,N,N′,N′-tetraacetic acid, Sigma), and MgATP 5 mM (pH 7.4, Sigma) was used as an intracellular solution. The protocol for T-type calcium channel activity that is activated at low voltage is as follows. A micro-glass electrode with resistance of 3-4 MΩ wherein the above-prepared intracellular solution was filled was pricked into a single cell, to make a whole-cell recording mode. Thereafter, the cell membrane potential was fixed to −100 mV, and then the inward current due to the T-type calcium channel activity when hypopolarizing to −30 mV (50 ms duration) was measured every 10 seconds.
Each compound to be tested was dissolved in 100% dimethylsulfoxide (DMSO) to make a 10 mM stock solution. The effect of the compound on the T-type calcium channel current compound was initially examined in the stock solution with the 1000-times diluted concentration of 10 μM (containing 0.1% DMSO) and then examined in the solution with the concentration for IC50 measurement (mostly 0.1 to 100 μM), to obtain an IC50 value. More specifically, the cells were treated in each compound together with the extracellular solution for 30 to 60 seconds, and the inhibition level of peak current induced by the compound was calculated as a percentage, to obtain the % inhibition value as shown in Table 4.

[3] = 10 μM, HEK293 cells stably expressing α1G T-type calcium channel and Kir2.1, compounds of the examples
[4] = HEK293, 10 μM, HEK293 cells stably expressing α1G T-type calcium channel and Kir2.1, compounds of the examples, read-out: FDSS (% inhibition)/10uM

| Molecule | inhibition at 10 µM [1, 4] | melting point | inhibition at 10 µM ([1]; 10 μM, FDSS (% inhibition), comparative compounds where R6 is a phenyl group, read-out: FDSS) | FDSS (% inhibition)/10uM [1, 3] | HEK293cell (% Inhibition) 10 μM [2] | IC50 [2] |
| --- | --- | --- | --- | --- | --- | --- |
| CN1C(=NC2CCCCCC2)SCC1CC(=O)Nc1cc(Cl)cc(Cl)c1.Cl (stereo not drawn) [KHG24125, (2-cycloheptylimino-3-methyl-1,3-thiazolidine-4-yl)-N-(3,5- ? chlorophenyl)-acetamide hydrochloride] | – | – | – | 71.79% | 95.6 ± 1.2% | 80 ± 10 nM |
| CN1C(=NC2C3CC4CC(C3)CC2C4)SCC1CC(=O)Nc1ccc(F)cc1.Cl (stereo not drawn) [KHG24842, [2-(2-adamantylimino)-3-methyl-1,3-thiazolidine-4-yl]-N-(4-fluorophenyl)-acetamide hydrochloride] | 59.8% | 154 °C | – | – | – | – |
| (2-cycloheptylimino-3-methyl-1,3-thiazolidine-4-yl)-N-(2,4-difluorophenyl)-acetamide hydrochloride [KHG24127] | – | – | – | 49.69% | 80.8 ± 0.6% | 2660 ± 330 nM |
| (2-cycloheptylimino-3-methyl-1,3-thiazolidine-4-yl)-N-(2-chloro-4-fluorophenyl)-acetamide hydrochloride [KHG24120] | – | – | – | 60.08% | 82.7 ± 0.9% | 2750 ± 250 nM |
| (2-cycloheptylimino-3-methyl-1,3-thiazolidine-4-yl)-N-(2-fluoro-4-methylphenyl)-acetamide hydrochloride [KHG24126] | – | – | – | 53.79% | 87.7 ± 0.6% | 1200 ± 80 nM |
| (2-cycloheptylimino-3-methyl-1,3-thiazolidine-4-yl)-N-(2-fluoro-5-nitrophenyl)-acetamide hydrochloride [KHG24129] | – | – | – | 61.39% | 90.0 ± 0.4% | 1570 ± 110 nM |
| (2-cycloheptylimino-3-methyl-1,3-thiazolidine-4-yl)-N-(4-bromophenyl)-acetamide hydrochloride [KHG24122] | – | – | – | 71.12% | 94.6 ± 0.5% | 390 ± 30 nM |
| (2-cycloheptylimino-3-methyl-1,3-thiazolidine-4-yl)-N-(4-chloro-2-fluorophenyl)-acetamide hydrochloride [KHG24130] | – | – | – | 70.4% | 90.0 ± 0.9% | 810 ± 80 nM |
| (2-cycloheptylimino-3-methyl-1,3-thiazolidine-4-yl)-N-(4-chlorobenzyl)-acetamide hydrochloride [KHG24160] | – | – | – | 61.93% | 92.9 ± 0.7% | 1330 ± 30 nM |
| (2-cycloheptylimino-3-methyl-1,3-thiazolidine-4-yl)-N-(4-chlorophenyl)-acetamide hydrochloride [KHG24131] | – | – | – | 72.86% | 86.8 ± 0.3% | 520 ± 20 nM |
| (2-cycloheptylimino-3-methyl-1,3-thiazolidine-4-yl)-N-(4-cyanomethylphenyl)-acetamide hydrochloride [KHG24121] | – | – | – | 41.02% | 58.1 ± 4.9% | 8530 ± 1720 nM |
| (2-cycloheptylimino-3-methyl-1,3-thiazolidine-4-yl)-N-(4-ethylphenyl)-acetamide hydrochloride [KHG24117] | – | – | – | 67.09% | 93.0 ± 2.5% | 570 ± 70 nM |
| (2-cycloheptylimino-3-methyl-1,3-thiazolidine-4-yl)-N-(4-fluorobenzyl)-acetamide hydrochloride [KHG24159] | – | – | – | 48.52% | 76.8 ± 1.4% | 3570 ± 290 nM |

Second part, led by results:

| inhibition at 10 µM [1, 4] | melting point | inhibition at 10 µM ([1]; 10 μM, FDSS (% inhibition), comparative compounds where R6 is a phenyl group, read-out: FDSS) | Molecule | FDSS (% inhibition)/10uM [1, 3] | HEK293cell (% Inhibition) 10 μM [2] | IC50 [2] |
| --- | --- | --- | --- | --- | --- | --- |
| 35.4% | 233 °C | – | CC(C)N1C(=NC23CC4CC(CC(C4)C2)C3)SCC1CC(=O)Nc1cc(C(F)(F)F)cc(C(F)(F)F)c1.Cl (stereo not drawn) [KHG24828, [2-(1-adamantylimino)-3-isopropyl-1,3-thiazolidine-4-yl]-N-(3,5-ditrifluoromethylphenyl)-acetamide hydrochloride] | – | – | – |
| 69% | 227 °C | – | CC(C)N1C(=NC23CC4CC(CC(C4)C2)C3)SCC1CC(=O)Nc1ccc(CF)cc1.Cl (stereo not drawn) [KHG24829, [2-(1-adamantylimino)-3-isopropyl-1,3-thiazolidine-4-yl]-N-(4-fluoromethylphenyl)-acetamide hydrochloride] | – | – | – |
| 57% | 220 °C | – | Cc1ccc(NC(=O)CC2CSC(=NC34CC5CC(CC(C5)C3)C4)N2C(C)C)cc1.Cl (stereo not drawn) [KHG24831, [2-(1-adamantylimino)-3-isopropyl-1,3-thiazolidine-4-yl]-N-(4-methylphenyl)-acetamide hydrochloride] | – | – | – |
| 46.5% | 171 °C | – | CCc1ccc(NC(=O)CC2CSC(=NC34CC5CC(CC(C5)C3)C4)N2C(C)C)cc1.Cl (stereo not drawn) [KHG24832, [2-(1-adamantylimino)-3-isopropyl-1,3-thiazolidine-4-yl]-N-(4-ethylphenyl)-acetamide hydrochloride] | – | – | – |
| 37% | 164 °C | – | CC(C)N1C(=NC23CC4CC(CC(C4)C2)C3)SCC1CC(=O)Nc1ccc(Oc2ccccc2)cc1.Cl (stereo not drawn) [KHG24833, [2-(1-adamantylimino)-3-isopropyl-1,3-thiazolidine-4-yl]-N-(4-phenoxyphenyl)-acetamide hydrochloride] | – | – | – |
| 65.7% | 228 °C | – | CC(C)N1C(=NC23CC4CC(CC(C4)C2)C3)SCC1CC(=O)Nc1ccc(Cl)cc1F.Cl (stereo not drawn) [KHG24834, [2-(1-adamantylimino)-3-isopropyl-1,3-thiazolidine-4-yl]-N-(4-chloro-2-fluorophenyl)-acetamide hydrochloride] | – | – | – |
| 55.2% | 116 °C | – | CC(C)N1C(=NC23CC4CC(CC(C4)C2)C3)SCC1CC(=O)Nc1cc(Cl)ccc1F.Cl (stereo not drawn) [KHG24835, [2-(1-adamantylimino)-3-isopropyl-1,3-thiazolidine-4-yl]-N-(5-chloro-2-fluorophenyl)-acetamide hydrochloride] | – | – | – |
| 48.9% | 231 °C | – | Cc1ccc(NC(=O)CC2CSC(=NC34CC5CC(CC(C5)C3)C4)N2C(C)C)cc1Cl.Cl (stereo not drawn) [KHG24836, [2-(1-adamantylimino)-3-isopropyl-1,3-thiazolidine-4-yl]-N-(5-chloro-4-methylphenyl)-acetamide hydrochloride] | – | – | – |
| 59.7% | 145 °C | – | CCCN1C(=NC23CC4CC(CC(C4)C2)C3)SCC1CC(=O)Nc1cc([N+](=O)[O-])ccc1F.Cl (stereo not drawn) [KHG24839, [2-(1-adamantylimino)-3-n-propyl-1,3-thiazolidine-4-yl]-N-(2-fluoro-5-nitrophenyl)-acetamide hydrochloride] | – | – | – |
| 49.4% | 131 °C | – | CC(C)N1C(=NC23CC4CC(CC(C4)C2)C3)SCC1CC(=O)Nc1cc([N+](=O)[O-])ccc1F.Cl (stereo not drawn) [KHG24840, [2-(1-adamantylimino)-3-isopropyl-1,3-thiazolidine-4-yl]-N-(2-fluoro-5-nitrophenyl)-acetamide hydrochloride] | – | – | – |
| – | 229 to 231 °C | 20.5% | CN1C(=Nc2cccc(F)c2)SCC1CC(=O)Nc1ccc(Cl)cc1F.Cl (stereo not drawn) [KHG32076, [2-(3-fluorophenylimino)-3-methyl-1,3-thiazolidine-4-yl]-N-(4-chloro-2-fluorophenyl)-acetamide hydrochloride] | – | – | – |
